Data on three compounds can be found in article PMC10385416, “Iron-Gallic Acid Peptide Nanoparticles as a Versatile Platform for Cellular Delivery with Synergistic ROS Enhancement Effect” (Pharmaceutics, 2023).

Ends that are not written are not given here. Peptide text beside a SMILES is read from it.

A short description of data set [1]: Methylene blue assay of HO• production (Fenton reaction). To be noted: pH 4, H2O2, same Fe content (36 µg Fe3+), UV-Vis every 5 min over 6 h. The protocol:
MB assays were used to measure the HO^• production efficacy of IGPNs. IGPNs (36 µg Fe^3+) were mixed with MB (1.5 mL, 10 µg L^−1) and H2O2 (1 mL), and H2O was added to a final volume of 3 mL. The absorbance at 664 nm was recorded with a Cary 3500 UV–Vis Spectrophotometer every 5 min over 6 h.
To verify the hypothesized Fenton reaction of IGPNs, H2O2 was used as a source of hydroxyl radicals (HO^•) and to simulate the tumor microenvironment. The generation of HO^• and degradation of methylene blue (MB) upon exposure to H2O2 and different samples adjusted to the same Fe content (IGPNs or FeCl3 solution) was monitored by UV–Vis spectrometry. At pH 4 (Figure 7A), the decrease of absorbance at 664 nm was accelerated in the presence of Fe-A4**, FePVP-A4**, or Fe^3+. At the favorable acidic pH, no differences in reaction rates were observed between IGPNs and Fe^3+, since the content of Fe^3+ is obviously sufficient to drive the reaction under these conditions. In contrast, at pH 7.4, the absorbance decline was clearly more pronounced in case of IGPNs (Figure 7B). This phenomenon could be explained by an accelerated conversion of Fe^3+ to Fe^2+ in the presence of GA.

The subject of data set [2] is HeLa cells. Briefly: Cell viability (CellTiter-Glo assay), HeLa. Format: cell-based, human. To be noted: 10 μM, 72 h. The protocol:
The CellTiter-Glo® Luminescent Cell Viability Assay was performed to determine the viability of HeLa or N2a cells after treatment with IGPNs or the individual components. One day prior to the treatments, HeLa or N2a cells were seeded into 96-well plates at a density of 5000 cells/well. On the next day, the medium in each well was replaced with 90 μL of fresh medium, and 10 μL of nanoparticles or control solutions (free peptides, Fe, FePVP) was added to each well corresponding to the specified final concentrations of the peptide or Fe^3+, respectively. The supernatant was removed after 72 h incubation, and 25 µL of medium as well as 25 µL of CellTiter-Glo reagent were added to each well. The plate was gently agitated for 30 min at RT, and the luminescence signal (relative light units, RLU) was recorded by a Centro LB 960 plate reader luminometer (Berthold Technologies, Bad Wildbad, Germany). The relative cell viability (in percentage) was calculated relative to control wells treated with HBG buffer as ([RLU] test/[RLU] control) × 100%. All experiments were performed in triplicate.
(In general: ATP-based viability assays read luminescence as a measure of living cells.)

As for `O.O.O.O.O.O.[Cl-].[Cl-].[Cl-].[Fe+3]` [Fe^3+, iron (III) chloride hexahydrate], the “decrease of methylene blue absorbance at 664 nm (HO• generation) at pH 4” value in data set [1] is given as “accelerated”.

For `NCCCC[C@H](NC(=O)[C@@H]1CCCN1C(=O)[C@@H](N)CCC(N)=O)C(=O)O` [SIO] (H-Gln-Pro-Lys-OH), the “cytotoxicity / tolerability in words” value in data set [2] is recorded as “not able to mediate significant cytotoxicity”. Consider AVPIAQK [AVP], for which, in data set [2], the “cytotoxicity / tolerability in words” value is “not able to mediate significant cytotoxicity”.
